Consider nine molecules from PMC5618341, “Controlled inhibition of methyltransferases using photoswitchable peptidomimetics: towards an epigenetic regulation of leukemia” (Chemical Science, 2017).

Like-named read-outs stand apart in the source and are kept apart here. Starred links: 1 amine or outer side, 2 acyl side, 3 side chain; linkers in the order of their positions; H or OH if unused. Positions of bridges follow the written chain, without caps; N, C: chain ends. Non-standard residues stand in square brackets, D forms with d. Residues, ends and D or L forms follow the SMILES beside them. *: point of attachment. AMPB(E) = O=C(c1ccc(/N=N/c2ccc(CN[*:1])cc2)cc1)[*:2]; AMPB = O=C(c1ccc(N=Nc2ccc(CN[*:1])cc2)cc1)[*:2]; X1 = O=C(c1ccc(/N=N\c2ccc(CN[*:1])cc2)cc1)[*:2]; d(αMeK) = C[C@@](N)(CCCCN)C(=O)O; dPhg = N[C@@H](C(=O)O)c1ccccc1; Isobutyryl = CC(C)C(=O)*; Abu = CC[C@H](N)C(=O)O; Ahx = NCCCCCC(=O)O; βAla = NCCC(=O)O

In series [1] the test system is MLL-AF9-transduced mouse bone marrow cells. In words: Proliferation / cell viability assay (CellTiter-Glo). In kind it is cell-based. To be noted: for Inhibition (%) of growth: 5 μM. The protocol:
(§1) We initially studied the cellular uptake and cell viability of our compounds in murine MLL-AF9-transduced mouse bone marrow cells (Fig. 5). In line with our expectations, peptidomimetics 16 and 17 that contained peptide 7 within their sequence are the ones that inhibited the cell proliferation of leukemia. […] Thus, while in the case of the trans isomer of peptidomimetic 16 we already determined less than 50% of viable cells at 2.5 μM concentration, with the WIN-containing conjugates 20 and 21 we measured 87% and 96% of viable cells at 50 μM concentration, respectively.
(§2) We then examined the potential of 16 and 17 to control externally the cellular response in proliferation assays. Thus, both isomers of both peptidomimetics were incubated at different concentrations for four days. After two days of incubation, the cells containing the cis isomers were irradiated at 430 nm for 90 seconds in a single isomerization cycle with a custom-made 6-well plate LED array.
(§3) MLL-AF9-transduced mouse bone marrow was cultured in IMDM medium + 15% FBS and supplemented with 10 ng/mL interleukin-3 (IL-3) at each passage, every other day.
(§4) DMSO) isomers, of peptides 7, 16, 17, as well as the peptides 18 and 19 were diluted from stock to culture media containing a 0.1% DMSO final concentration. For viability assays, […]
(§5) 72 h and DMSO as control . For the cis-trans group, after 48 h treatment with cis peptides, the plate was irradiated at […] for 90 sec and continued to culture for 2 days in the dark.
(§6) Viability was determined using the CellTiter-Glo Kit (Promega) according to the a a ’ d . was monitored on a Molecular Devices plate reader.
In general terms: Cellular ATP, detected with luciferase, serves as a proxy for viable cell number.

For series [2], the target named is T1, WDR5Δ23 (Homo sapiens, UniProt P61964).
T1 construct: His6-SUMO (N, cleaved yes); made in house; host or cells: E. coli DH5α (so in the source)
The experiment in a line: Fluorescence polarization (FP)-based competitive binding assay. In general terms: Fluorescence polarisation rises when a labelled molecule tumbles more slowly, as on binding a larger partner.

The target in series [3] is MLL1 core complex (MLL1, WDR5, RbBP5, and ASH2L) (Homo sapiens, UniProt P61964). In words: biochemical.
Experimental: To test this, we studied the inhibition of MLL1 H3K4 methyltransferase activity through the previously reported in vitro HMT assay using the MLL1 core complex (i.e. MLL1, WDR5, RbBP5, and ASH2L) and the H3 20mer peptide as substrate.[17]
In Vitro Methyl Transferase Assay with MLL1 Core Complex
In Vitro Histone Methyltransferase (HMT) Assay
The HMT assay was performed, as previously described[25] with slight modifications, in 50 mM Tris pH 8.0, 50 mM NaCl, 1.0 mM DTT, 5 mM MgCl2 at room temperature. Each reaction contained 1.5 μM of the cofactor 3H-S-adenosylmethionine (Perkin-Elmer). H31-21 peptide was used as the substrate at 250 μM. […] Reactions were initiated by addition of the H3/SAM and allowed to proceed for 60 min before preparing scintillation counting. To count samples, reactions were spotted on separate squares of P81 filter paper (Millipore) and precipitated by submerging in freshly prepared 50 mM sodium bicarbonate buffer pH = 9.0. After washing and drying, the samples were vortexed in Ultima Gold scintillation fluid and counted.
Series [4] in a line: Proliferation / cell viability assay (CellTiter-Glo). It counts as cell-based, mouse. The protocol:
as §1, §2, §3, §4, §5, §6

[5] abbreviates: IC50 cis (with 5 nM tracer), cis isomer (366 nm), 20 nM WDR5Δ23, 5 nM tracer 22.
Where [6] appears, read: IC50 trans (with 5 nM tracer), trans isomer, 20 nM WDR5Δ23, 5 nM tracer 22.
[7] abbreviates: non-irradiated peptide (trans isomer), 72 nM WDR5Δ23, 20 nM tracer 22, read-out: Ki, non-irradiation (trans).
[8] abbreviates: non-irradiated peptide (trans isomer), 72 nM WDR5Δ23, 20 nM tracer 22, read-out: IC50, non-irradiated (trans).

Regarding `CC(C)C[C@H](NC(=O)[C@H](Cc1c[nH]cn1)NC(=O)[C@@H](NC(=O)c1ccc(/N=N\c2ccc(CNC(=O)[C@H](C)NC(=O)[C@H](CCCNC(=N)N)NC(=O)[C@H](C)NC(=O)[C@@H](N)CO)cc2)cc1)C(C)C)C(=O)N[C@@H](CCCNC(=N)N)C(=O)N[C@@H](CCCCN)C(=O)N[C@@H](CO)C(N)=O` [7cis, H2N-SARAXVHLRKS-CONH2] (H-SARA[X1]VHLRKS-NH2), in series [1] (96 h incubation), the “Inhibition (%) of growth” value is given as “≈ 0%”. The IC50 came to 0.147 ± 0.014 µM in series [2] (setting [5]) and 8.23 ± 0.38 µM in series [3].
Take `CC(C)C[C@H](NC(=O)[C@H](Cc1c[nH]cn1)NC(=O)[C@@H](NC(=O)c1ccc(/N=N/c2ccc(CNC(=O)[C@H](C)NC(=O)[C@H](CCCNC(=N)N)NC(=O)[C@H](C)NC(=O)[C@@H](N)CO)cc2)cc1)C(C)C)C(=O)N[C@@H](CCCNC(=N)N)C(=O)N[C@@H](CCCCN)C(=O)N[C@@H](CO)C(N)=O` [7trans, H2N-SARAXVHLRKS-CONH2] (H-SARA[AMPB(E)]VHLRKS-NH2): in series [1] (96 h incubation), the “Inhibition (%) of growth” value turned out to be 0%. The IC50 is 0.057 ± 0.011 µM in series [2] (setting [6]) and 0.531 ± 0.023 µM in series [3].
Turning to `CC(C)C[C@H](NC(=O)[C@H](Cc1c[nH]cn1)NC(=O)[C@@H](NC(=O)c1ccc(/N=N\c2ccc(CNC(=O)[C@H](C)NC(=O)[C@H](CCCNC(=N)N)NC(=O)[C@H](C)NC(=O)[C@@H](N)CO)cc2)cc1)C(C)C)C(=O)N[C@@H](CCCNC(=N)N)C(=O)N[C@@H](CCCCN)C(=O)N[C@@H](CO)C(=O)N[C@@H](CCCNC(=N)N)C(=O)N[C@@H](CCCNC(=N)N)C(=O)N[C@@H](CCCNC(=N)N)C(=O)N[C@@H](CCCNC(=N)N)C(=O)N[C@@H](CCCNC(=N)N)C(=O)N[C@@H](CCCNC(=N)N)C(=O)N[C@@H](CCCNC(=N)N)C(=O)N[C@@H](CCCNC(=N)N)C(N)=O` [16cis, H2N-SARA-AMPB-VHLRKS-R8-NH2] (H-SARA[X1]VHLRKSRRRRRRRR-NH2), the GI50 in series [1] (96 h) worked out at 2.88 ± 0.24 µM.
As for `CC[C@@H]1NC(=O)[C@H](CCCN=C(N)N)NC(=O)[C@](C)(NC(=O)C(C)C)CCCCNC(=O)[C@@H](c2ccccc2)NC1=O` [MM401, reference compound] (Isobutyryl-[d(αMeK)]R[Abu][dPhg]; lactam 1-C), the GI50 in series [1] (96 h incubation, cis isomers kept in the dark, read-out: GI50) amounted to 9.76 µM.
As for `CC(=O)N[C@@H](C)C(=O)N[C@@H](CCCNC(=N)N)C(=O)N[C@@H](C)C(=O)NCc1ccc(N=Nc2ccc(C(=O)N[C@H](C(=O)N[C@@H](Cc3c[nH]cn3)C(=O)N[C@@H](CC(C)C)C(=O)N[C@@H](CCCNC(=N)N)C(=O)N[C@@H](CCCCN)C(=O)N[C@@H](CO)C(N)=O)C(C)C)cc2)cc1` [peptide 14, Ac-ARAXVHLRKS-CONH2] (Ac-ARA[AMPB]VHLRKS-NH2), the figures for the IC50 in series [2] (setting [5]) and in series [2] (setting [6]) were 0.102 ± 0.015 µM and 0.045 ± 0.011 µM, respectively. For the same molecule, the Ki in series [2] (Ki cis (with 5 nM tracer), cis isomer (366 nm), 20 nM WDR5Δ23, 5 nM tracer 22) is 0.0045 ± 0.00082 µM; in series [2] (Ki trans (with 5 nM tracer), trans isomer, 20 nM WDR5Δ23, 5 nM tracer 22), 0.0015 ± 0.00063 µM; in series [2] (setting [7]), 0.00145 ± 0.00052 µM.
Turning to `CC(=O)N[C@@H](C)C(=O)N[C@@H](CCCNC(=N)N)C(=O)N[C@H](C(=O)NCc1ccc(N=Nc2ccc(C(=O)N[C@H](C(=O)N[C@@H](Cc3ccc(O)cc3)C(N)=O)C(C)C)cc2)cc1)[C@@H](C)O` [peptide 15, Ac-ARTXVY-CONH2] (Ac-ART[AMPB]VY-NH2), in series [2] (setting [8]), the IC50 was found to be 0.109 ± 0.01 µM. In addition, in series [2] (setting [7]), the Ki was determined as 0.000767 ± 0.00015 µM.
Molecule `CC(C)C[C@H](NC(=O)[C@H](Cc1c[nH]cn1)NC(=O)[C@@H](NC(=O)[C@H](CCC(=O)O)NC(=O)[C@H](C)NC(=O)[C@H](CCCNC(=N)N)NC(=O)[C@H](C)NC(=O)[C@@H](N)CO)C(C)C)C(=O)N[C@@H](CCCNC(=N)N)C(=O)N[C@@H](CCCCN)C(=O)N[C@@H](CO)C(=O)N[C@@H](CCCNC(=N)N)C(=O)N[C@@H](CCCNC(=N)N)C(=O)N[C@@H](CCCNC(=N)N)C(=O)N[C@@H](CCCNC(=N)N)C(=O)N[C@@H](CCCNC(=N)N)C(=O)N[C@@H](CCCNC(=N)N)C(=O)N[C@@H](CCCNC(=N)N)C(=O)N[C@@H](CCCNC(=N)N)C(N)=O` [peptide 20] (H-SARAEVHLRKSRRRRRRRR-NH2) displayed a viability at 50 µM in series [4] of 87%. The IC50 in series [2] (setting [8]) was found to be 0.368 ± 0.02 µM. In series [2] (setting [7]), the Ki was found to be 0.00483 ± 0.00031 µM.
In series [4], `CC(C)C[C@H](NC(=O)[C@H](Cc1c[nH]cn1)NC(=O)[C@@H](NC(=O)[C@H](CCC(=O)O)NC(=O)[C@H](C)NC(=O)[C@H](CCCNC(=N)N)NC(=O)[C@H](C)NC(=O)[C@@H](N)CO)C(C)C)C(=O)N[C@@H](CCCNC(=N)N)C(=O)N[C@@H](CCCCN)C(=O)N[C@@H](CO)C(=O)N[C@@H](CCCNC(=N)N)C(=O)NCCCCCC(=O)N[C@@H](CCCNC(=N)N)C(=O)N[C@@H](CCCNC(=N)N)C(=O)NCCCCCC(=O)N[C@@H](CCCNC(=N)N)C(=O)N[C@@H](CCCNC(=N)N)C(=O)NCCCCCC(=O)N[C@@H](CCCNC(=N)N)C(=O)N[C@@H](CCCNC(=N)N)C(=O)NCCCCCC(=O)N[C@@H](CCCNC(=N)N)C(=O)NCCCCCC(=O)NCCC(N)=O` [peptide 21] (H-SARAEVHLRKSR[Ahx]RR[Ahx]RR[Ahx]RR[Ahx]R[Ahx][βAla]-NH2) gave a viability at 50 µM of 96%. Further, the IC50 in series [2] (setting [8]) was determined as 0.612 ± 0.02 µM. Besides, the Ki in series [2] (setting [7]) stood at 0.00867 ± 0.00032 µM.
Regarding “H2N-SXARAEVHLRKS-CONH2 [peptide 4, X = AMPB]”, in series [2] (both isomers), the “binding constant to WDR5 (in words)” value was “not possible to obtain measurable binding constants”.

As a reminder, the IC50 is the concentration that inhibits the measured activity by half. The term GI50 denotes the concentration giving 50% growth inhibition. As usually defined, the Ki is a measure of affinity in units of concentration, obtained from inhibition or displacement. The term viability denotes a read-out of living cells in per cent, often relative to untreated cells. A higher viability goes with better survival.
